Results taken from US20120289492A1, “METHODS OF TREATING MITOCHONDRIAL DISORDERS USING METALLOPORPHYRINS” (priority 2009, published 2012).
“Also recorded” adds a separate entry of the source.

How the values were obtained:
[1] = Ames' test (mutagenicity); type: cell-based
Text: Safety profile: A prototypical metalloporphyrin (AEOL10150; FIG. 1) has completed phase 1 trials in amyotrophic lateral sclerosis patients. Extensive safety studies of this compound have been completed in mice, monkeys and rats. […] Safety studies for the structurally related compound, AEOL11207 need to be completed once its efficacy is established in animal studies.

[2] = tested on: forebrain of Sod2−/− mice; experiment: Mitochondrial oxidative stress and bioenergetic indices in brain of Sod2−/− mice; type: in vivo
Protocol: To determine whether AEOL11207 decreases mitochondrial dysfunction and corrects key bioenergetic parameters in Sod2−/− mice, activity was measured of the oxidant sensitive mitochondrial enzyme, aconitase and oxidant insensitive control, fumarase, ATP, 3-nitrotyrosine (3NT), a marker of oxidative damage to proteins, reduced coenzyme A (CoASH) which assesses the mitochondrial redox state and the activity of the sodium potassium ATPase (Na+-K+ ATPase). […] FIGS. 5A-5EC illustrate attenuation of aconitase inactivation (5A), ATP depletion (5B), 3NT formation ([…]), CoASH depletion (5D) and decreased Na+-K+ ATPase activity (5E) in Sod2−/− mice by AEOL11207 (5 mg/kg, s.c. beginning PND5, n=*p<0.05, #p<0.01).
Methods:3-nitrotyrosine (3-NT) measurement by HPLC 3-NT assay are performed with HPLC equipped electrochemical detector using methods as previously described in the literature. The potentials of the electrochemical detector are set at 180/240/350/500/600/670/810/830 mV. Analyte separation is conducted on a TOSOHAAS (Montgomeryville, Pa.) reverse-phase ODS 80-TM C-18 analytical column (4.6 mm×[…]; 5 µm particle size). A two-component gradient elution system was used with component A of the mobile phase composed of 50 mM sodium acetate pH 3.2, and component B composed of 50mM sodium acetate and 40% methanol. The following gradient elution profile was used: 0-25 min, 100% A; 25-35 min, linear ramp to 50% B; 35-40 min, isocratic 50% B; 40-45 min, linear ramp to 100% A; 45-50 min, isocratic 100% A at a flow rate of 0.6 ml/min. 3-NT was expressed as a ratio of 3-NT to tyrosine.
Measurement of AMP, ADP and ATP: The levels of AMP, ADP and ATP are quantified by HPLC-UV set at 258 nm following previous described. Analyte are separated by […], […] C-18 reversed-phase column. Mobile phase is composed of 50 mM KH2PO4, 10% methanol, 3 mM TBAS and adjusted to pH 6.0 and flow rate set at 0.8 ml/min.
Aconitase and fumarase activity assay: Aconitase and fumarase activity are measured in mitochondrial fraction which isolated as previously described. Briefly, brain tissues are homogenized with a Dounce tissue grinder (Wheaton, Millville, N.J.) in ice-cold mitochondrial isolation buffer (70 mM sucrose, 210 mM mannitol, 5 mM Tris HCl, 1 mM EDTA pH 7.4). After homogenization, the suspensions are centrifuged at 800 g for 10 minutes at 4° C., and the supernatants centrifuged at 17,000 g for 10 minutes at 4° C. The pellets are washed by mitochondrial isolation buffer and centrifuged at 17,000 g for 10 minutes at 4° C. again. Aconitase activity is measured spectrophotometrically following previous described by monitoring the formation of cis-aconitate from isocitrate at 240 nm in 50 mM Tris HCl, pH 7.4, containing 0.6 mM MnCl2 at 25° C. Fumarase activity is measured by monitoring the increase in absorbance at 240 nm at 25° C. in a 1 ml reaction mixture containing 30 mM potassium phosphate, pH 7.4, 0.1 mM L-malate.
Isolation mitochondrial fraction Mitochondria were isolated from the forebrain of mice according to the previously described methods (Liang & Patel, (2006) Free Radic Biol Med 40, 316-22). In brief, the forebrain was homogenized with a Dounce tissue grinder (Wheaton, Millville, N.J.) in mitochondrial isolation buffer (70 mM sucrose, 210 mM mannitol, 5 mM Tris HCl, 1 mM EDTA; pH 7.4). The suspensions centrifuged at 800 g 4° C. for 10 min. The supernatants were centrifuged at 13000 g 4° C. for 10 min., pellets washed with mitochondrial isolation buffer and centrifuged at 13000 g 4° C. for 10 min. to obtain crude mitochondrial fractions. The purity of mitochondrial fractions has been confined by immunoblot analysis of cytochrome c oxidase (COX) (EC1.9.3.1) subunit IV and lactate dehydrogenase (LDH) (EC 1.1.1.27) in mitochondrial and cytosolic fractions. There is no mitochondria contamination in cytosolic fraction and about 5-10% cytosol contamination in mitochondrial fraction (Liang & Patel, (2006) Free Radic Biol Med 40, 316-22). […]

[3] = Sod2−/− mice, 5 mg/kg s.c. from PND5

Structure (SMILES): COC(=O)c1c2nc(c(C(F)(F)F)c3ccc([n-]3)c(C(=O)OC)c3nc(c(C(F)(F)F)c4ccc1[n-]4)C=C3)C=C2.[Cl-].[Mn+3] [AEOL11207]
- mutagenicity, Ames' test [1]: negative
- decreased CoASH levels [2, 3]: significantly attenuated
- increase in 3-nitrotyrosine (3NT) formation [2, 3]: significantly attenuated
- attenuation of the depletion of ATP ([2]; forebrain homogenates of Sod2−/− mice, 15-16 days old): 50%
- decreased Na+-K+ ATPase activity ([2]; forebrain homogenates, Sod2−/− mice, 5 mg/kg s.c. from PND5, 5 mg/kg): significantly attenuated; also recorded: significantly restored
- decrease in ATP levels (ATP depletion) ([2]; forebrain, Sod2−/− mice, 5 mg/kg s.c. from PND5): significantly attenuated
- decrease in aconitase activity (aconitase inactivation) ([2]; mitochondrial fractions, Sod2−/− mice, 5 mg/kg s.c. from PND5): significantly attenuated
